Measurements as given in ChEMBL document CHEMBL1201862, “PubChem BioAssay data set” (2004).
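Cells were grown in 96-well plates and exposed to each compound for 48 hours at five concentrations; endpoints were interpolated linearly between bracketing concentrations, or set to the highest concentration if not reached. At the GI50, growth is halved.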 The source made the active and inactive calls. Rule as the data show it: active = GI50 up to about 1.1 µM and inactive = higher.

Tests used:
Assay in all cases: NCI-60 cell line screen, 48 h
KM-20L2 = system: KM-20L2
SK-OV-3 = system: SK-OV-3
SNB-78 = system: SNB-78
NCI-H226 = system: NCI-H226
SF-295 = system: SF-295
M14 = system: M14
M19-MEL = system: M19-MEL
SF-268 = system: SF-268
HOP-92 = system: HOP-92
U-251 = system: U-251
HT-29 = system: HT-29
COLO 205 = system: COLO 205
NCI-H460 = system: NCI-H460
LOX IMVI = system: LOX IMVI
HCC 2998 = system: HCC 2998
MOLT-4 = system: MOLT-4
SF-539 = system: SF-539
CCRF-CEM = system: CCRF-CEM
NCI-H522 = system: NCI-H522
SK-MEL-28 = system: SK-MEL-28
NCI-H23 = system: NCI-H23
LXFL 529 = system: LXFL 529
A549 = system: A549
SNB-19 = system: SNB-19
SK-MEL-2 = system: SK-MEL-2
SR = system: SR
SK-MEL-5 = system: SK-MEL-5
UACC-62 = system: UACC-62
EKVX = system: EKVX
DMS-273 = system: DMS-273
ACHN = system: ACHN
OVCAR-3 = system: OVCAR-3
K562 = system: K562
OVCAR-4 = system: OVCAR-4
HCT-116 = system: HCT-116
KM12 = system: KM12
CAKI-1 = system: CAKI-1
SN12C = system: SN12C
786-0 = system: 786-0
TK-10 = system: TK-10
HOP-62 = system: HOP-62
UO-31 = system: UO-31
RXF 393 = system: RXF 393
HOP-18 = system: HOP-18
HL-60 = system: HL-60
RPMI-8226 = system: RPMI-8226
HCT-15 = system: HCT-15
RXF 631 = system: RXF 631
SW-620 = system: SW-620
XF498 = system: XF498
OVCAR-8 = system: OVCAR-8
IGROV-1 = system: IGROV-1
UACC-257 = system: UACC-257
OVCAR-5 = system: OVCAR-5
DLD-1 = system: DLD-1

Measured: GI50

CC(=O)O[C@H]1C=CC23OC(=O)[C@]1(C)[C@H]2[C@H](C(=O)O)C12CC(=O)[C@@](CO)(CC[C@H]13)C2
> 100 µM: HCT-15
inactive: KM-20L2 > 100 µM | SK-OV-3 > 100 µM | SNB-78 > 100 µM | NCI-H226 > 100 µM | SF-295 > 100 µM | M14 > 100 µM | M19-MEL > 100 µM | SF-268 > 100 µM | HOP-92 > 100 µM | U-251 > 100 µM | HT-29 > 100 µM | COLO 205 > 100 µM | NCI-H460 > 100 µM | LOX IMVI > 100 µM | HCC 2998 > 100 µM | MOLT-4 > 100 µM | SF-539 > 100 µM | CCRF-CEM > 100 µM | NCI-H522 > 100 µM | SK-MEL-28 > 100 µM | NCI-H23 > 100 µM | LXFL 529 > 100 µM | A549 > 100 µM | SNB-19 > 100 µM | SK-MEL-2 > 100 µM | SR > 100 µM | SK-MEL-5 > 100 µM | UACC-62 75.7 µM | EKVX > 100 µM | DMS-273 > 100 µM | ACHN > 100 µM | OVCAR-3 > 100 µM | K562 > 100 µM | OVCAR-4 > 100 µM | HCT-116 > 100 µM | KM12 > 100 µM | CAKI-1 > 100 µM | SN12C > 100 µM | 786-0 > 100 µM | TK-10 > 100 µM | HOP-62 > 100 µM | UO-31 > 100 µM | RXF 393 > 100 µM | HOP-18 > 100 µM | HL-60 > 100 µM | RPMI-8226 > 100 µM | RXF 631 > 100 µM | SW-620 > 100 µM | XF498 > 100 µM | OVCAR-8 > 100 µM | IGROV-1 > 100 µM | UACC-257 > 100 µM | OVCAR-5 > 100 µM | DLD-1 > 100 µM
